Results: article PMC6261651, “A functional proteomics platform to reveal the sequence determinants of lysine methyltransferase substrate selectivity” (Science Advances, 2018)
Entries after “also recorded” stand apart in the source; their conditions may differ. Blank lines part the entries; values can stand above or below the substance they belong to. Where no end group is shown, it is not given here. [ ]: non-standard residue; d: D form. Nle = CCCC[C@H](N)C(=O)O

Columns and labels:
Assay type in all cases: biochemical
[1] = target: T1, SMYD2 (Homo sapiens, UniProt Q9NRG4); assay: SPA kinetic analysis of SMYD2 methylation of peptide substrates; conditions: 200 nM SMYD2, 50 μM SAM, varied substrate concentration, mean of three independent measurements (Fig. 4D)
T1 construct: SMYD2 (full length) was expressed as a N-terminal glutathione S-transferase (GST) fusion; GST (N); made in house; host or cells: Escherichia coli BL21(DE3)
T1 sequence (Q9NRG4 whole entry, the tested form may be a part): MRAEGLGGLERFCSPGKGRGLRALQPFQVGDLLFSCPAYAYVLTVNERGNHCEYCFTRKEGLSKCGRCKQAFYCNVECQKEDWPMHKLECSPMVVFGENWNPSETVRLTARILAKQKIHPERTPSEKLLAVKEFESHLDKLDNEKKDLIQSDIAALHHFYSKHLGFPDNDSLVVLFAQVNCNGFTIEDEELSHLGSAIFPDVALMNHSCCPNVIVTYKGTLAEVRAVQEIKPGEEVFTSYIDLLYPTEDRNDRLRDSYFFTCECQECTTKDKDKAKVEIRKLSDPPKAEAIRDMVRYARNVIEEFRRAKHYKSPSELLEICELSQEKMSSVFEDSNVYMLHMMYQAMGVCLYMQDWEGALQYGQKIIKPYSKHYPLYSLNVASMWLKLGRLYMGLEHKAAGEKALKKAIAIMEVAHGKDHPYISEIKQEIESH
Description: (§1) Reactions (10 μl) containing 1 μg of KMT, 1 μg of a K-OPL set, and 1 μCi of ^3H-SAM (PerkinElmer) in KMT reaction buffer [50 mM tris (pH 8.8), 5 mM MgCl2, and 4 mM dithiothreitol] were incubated for 1 hour at room temperature. Reactions were stopped by adding trifluoracetic acid to a final concentration of 0.5%, neutralized by diluting with 135 μl of 50 mM NaHCO3, and transferred to streptavidin-coated FlashPlates (PerkinElmer). Plates were incubated for 15 min, sealed, and counted in a MicroBeta2 liquid scintillation counter (PerkinElmer) for 1 min per sample. Initial rate measure and kinetic analysis were performed using the same procedure with 200 nM SMYD2, 50 μM SAM (5:1 cold/hot ratio), and 80 μM substrate (initial rate measurements) or as indicated (kinetic analysis). IC50 measurements were performed using the same conditions with 5 μM PER2 peptide as a substrate.

[2] = target: T1, SMYD2; assay: In vitro SMYD2 methyltransferase assay with protein substrates (SDS-PAGE, 3H fluorography); conditions: 1 μg of KMT, 1 μg of substrate, 1 μCi 3H-SAM, 1 hour, room temperature; 3H fluorography (Fig. 5A, 5B, fig. S5A)
Description: Reactions (10 μl) containing 1 μg of KMT, 1 μg of the indicated substrates, and 1 μCi of ^3H-SAM (PerkinElmer) in KMT reaction buffer were incubated for 1 hour at room temperature. Reactions were quenched by the addition of SDS loading buffer and resolved by SDS–polyacrylamide gel electrophoresis. Following the detection of total protein by Coomassie staining, gels were treated with EN^3HANCE (PerkinElmer) and dried, and methylated proteins were detected by autoradiography.
Fig. S5. In vitro SMYD2 assays with protein substrates. (A) Coomassie stained SDS-PAGE of recombinant control (HIS-GST), known substrates (p53, MAPKAPK3), and predicted substrates (PRDM11, GDAP1, MAP3K12) in the absence and presence of SMYD2. Reactions were carried out with 1 μg of SMYD2, 1 μg of substrate, and 1 μCi of 3H-SAM. 3H fluorograph shown below after 24 hour exposure at -80 °C (B) Cartoon repre- sentation of ZPK (PDB:
5CEN) showing plus and minus three amino acids from the target lysine (PO) as stick models.
(1 picture or pasted object on this page, not shown here)

[3] = target: T1, SMYD2; assay: SPA initial rate measurements with peptide substrates, SMYD2; conditions: 200 nM SMYD2, 50 μM SAM (5:1 cold/hot), 80 μM substrate, room temperature, mean of three independent measurements (Fig. 2F), text gives words only
Text: To measure enzyme activity, we developed a scintillation proximity assay (SPA), which quantified the transfer of tritium-labeled methyl groups from the cofactor and methyl donor S-adenosylmethionine (SAM) to each K-OPL set (Fig. 1B). SPAs permit sensitive analysis of enzymatic activity and are advantageous when the reaction product is unknown. This platform enabled us to rapidly determine a KMT’s preference for any amino acid (except cysteine) at any position ± three positions from a target lysine.
as §1

[4] = target: T1, SMYD2; assay: IC50 measurements of Nle peptide inhibitors of SMYD2 using PER2 as a substrate (SPA); conditions: 200 nM SMYD2, 50 μM SAM, 5 μM PER2 peptide as substrate, mean of three (Fig. 4E), IC50 values not given
Description: as §1

[5] = target: T1, SMYD2; assay: MALDI-TOF-MS and MS/MS analysis of methylation products, SMYD2; conditions: 200 nM KMT, 80 μM peptide, 50 μM SAM, 1 hour, room temperature; MALDI-TOF-MS (Fig. 3C)
Description: (§2) For MS experiments, 200 nM KMT, 80 μM peptide, and 50 μM SAM were incubated in KMT reaction buffer for 1 hour at room temperature. Reactions were quenched with 0.5% trifluoroacetic acid and analyzed by MS. KMT-reacted samples were deposited on a MALDI target plate (4 μl per spot) and mixed with 1 μl of matrix solution (α-cyano-4-hydroxycinnamic acid in 50% acetonitrile). MALDI-TOF-MS and MS/MS (positive ion mode at 1 kV) spectra were collected using SCIEX TOF/TOF 5800 MALDI MS spectrometer. The peptide fragmentation modeling and peak assignments were done using the Peptide Sequence Fragmentation Modeling tool (https://omics.pnl.gov/software/molecular-weight-calculator).

[6] = target: T2, SET7/9 (Homo sapiens, UniProt Q8WTS6); assay: SPA initial rate measurements with peptide substrates, SET7/9; conditions: 3H-SAM, 50 μM SAM (5:1 cold/hot), 80 μM substrate, room temperature, mean of three independent measurements (Fig. 2E), text gives words only
T2 construct: purchased New England BioLabs M0223
T2 sequence (Q8WTS6 1-366): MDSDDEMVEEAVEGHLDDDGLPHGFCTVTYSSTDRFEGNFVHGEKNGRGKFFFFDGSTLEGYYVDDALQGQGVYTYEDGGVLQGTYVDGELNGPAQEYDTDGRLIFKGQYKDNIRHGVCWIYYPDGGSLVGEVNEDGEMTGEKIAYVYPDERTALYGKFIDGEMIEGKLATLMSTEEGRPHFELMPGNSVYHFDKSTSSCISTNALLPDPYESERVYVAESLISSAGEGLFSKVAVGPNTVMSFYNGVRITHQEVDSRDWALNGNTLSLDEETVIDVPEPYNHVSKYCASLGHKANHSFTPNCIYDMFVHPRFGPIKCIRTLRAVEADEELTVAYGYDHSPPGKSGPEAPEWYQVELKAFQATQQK

[7] = target: T2, SET7/9; assay: MALDI-TOF-MS and MS/MS analysis of methylation products, SET7/9; conditions: 200 nM KMT, 80 μM peptide, 50 μM SAM, 1 hour, room temperature; MALDI-TOF-MS (Fig. 3B)
Description: as §2

[8] = target: T3, G9a (Homo sapiens, UniProt Q96KQ7); assay: MALDI-TOF-MS and MS/MS analysis of methylation products, G9a; conditions: 200 nM KMT, 80 μM peptide, 50 μM SAM, 1 hour, room temperature; MALDI-TOF-MS (Fig. 3A)
T3 construct: G9a (amino acids 913 to 1210) was produced as a 6XHis N-terminal fusion; 6XHis (N); made in house; host or cells: Escherichia coli BL21(DE3)
T3 sequence (Q96KQ7 913-1210): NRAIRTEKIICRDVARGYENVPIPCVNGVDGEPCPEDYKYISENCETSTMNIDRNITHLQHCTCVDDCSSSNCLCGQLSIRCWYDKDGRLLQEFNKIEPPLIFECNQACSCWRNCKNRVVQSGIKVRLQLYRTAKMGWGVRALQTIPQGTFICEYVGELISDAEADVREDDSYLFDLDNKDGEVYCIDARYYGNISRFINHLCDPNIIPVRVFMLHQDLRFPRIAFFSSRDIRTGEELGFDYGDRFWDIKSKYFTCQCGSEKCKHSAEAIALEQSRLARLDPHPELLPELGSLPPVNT
Description: as §2

[9] = target: T3, G9a; assay: SPA initial rate measurements with peptide substrates, G9a; conditions: 3H-SAM, 50 μM SAM (5:1 cold/hot), 80 μM substrate, room temperature, mean of three independent measurements (Fig. 2D), text gives words only

methylation of recombinant protein substrate by SMYD2 [2]: reduced compared to the wild-type PRDM11
Substance: PRDM11 K89D: PRDM11 mutant predicted to render this SMYD2 substrate deficient

methylation products with SET7/9 [7]: addition of a single methyl group
Substance: RRSKRRK [SCN5A K477, optimal SET7/9 substrate predicted by K-OPL]
rate of methylation by SET7/9 (substrate efficiency) [6]: methylated at a faster rate than p53 K372

kinetic model of SMYD2 methylation [1]: standard Michaelis-Menten (MM) model | kinetic model of SMYD2 methylation ([1]; listed as p53): classical MM kinetics
Substance: SHLKSKK [p53 K370, peptide corresponding to previously reported SMYD2 substrate p53 K370, reference compound]

methylation products with G9a [8]: both monomethyl and dimethyl products
Substance: TARKRFK [optimal G9a peptide substrate derived from the K-OPL profile]
rate of methylation by G9a (substrate efficiency) [9]: more efficient substrate than H3K9 or WIZ

kinetic model of SMYD2 methylation [1]: consistent with substrate inhibition | rate of methylation by SMYD2 (substrate efficiency) [3]: increased the rate of methylation
Substance: WKLKSKR [optimal K-OPL-derived SMYD2 substrate, not found in any human protein]

More lines, now with the values behind:

Substance: DKLKSKR [PER2 derivative peptide with aspartic acid in the P−3 position]
kinetic model of SMYD2 methylation [1]: followed a classical MM model

Substance: PRDM11: recombinant PRDM11 (amino acids 79 to 314)
methylation of recombinant protein substrate by SMYD2 [2]: methylated by SMYD2; also recorded: at least as efficiently as the known substrate, p53

Substance: RKDKSKR [PER2 derivative peptide with aspartic acid in the P−1 position]
rate of methylation by SMYD2 (substrate efficiency) [3]: equally poor SMYD2 substrates

Substance: RKD[Nle]SKR [Nle derivative of RKDKSKR]
inhibition of SMYD2 methylation of PER2 [4]: less effective

Substance: RKLKEKR [PER2 derivative peptide with glutamic acid in the P+1 position]
rate of methylation by SMYD2 (substrate efficiency) [3]: equally poor SMYD2 substrates

Substance: RKLKSKR [PER2 K798, peptide corresponding to lysine 798 of PER2; SMYD2 substrate]
methylation products with SMYD2 [5]: addition of a single methyl group | rate of methylation by SMYD2 (substrate efficiency) [3]: more efficient substrate than peptides corresponding to previously reported SMYD2 substrates p53 K370 and MAPKAPK3 K355
